One sequence from article doi:10.1101/496141v1 (bioRxiv, 2018) can be followed below.

Holding throughout (type): in vivo, mouse
The test system of one experiment is Tg2576 mice. As to the kind of experiment: Contextual fear conditioning in Tg2576 mice. To be noted: 7 months old mice, 20 mg/kg i.p. 1h before training; vs Tg2576 SCR.
For experiment [1], the system named is ERK phosphorylation (pERK). As to the kind of experiment: pERK positive cells in dorsal striatum after i.p. RB5. The note with it: single dose 20 mg/kg i.p., n=5 mice/group, vs SCR at 1h.
Another experiment has as its system Hdh^Q111/+ knock-in mice. As to the kind of experiment: Hdh Q111/+ knock-in mice: striatal caspase-3 and pERK. The note with it: 20 mg/kg i.p. for 8 days; twice a day, 7 days; vs SCR.

For the sequence “GRKKRRQRRRPPQGGGGGEPRRTEGVGPGVPGEVEMVKGQPFDV [RB5]”, in the experiment on Tg2576 mice, the “contextual fear memory impairment in Tg2576 mice (% of time spent freezing, 24h)” value is “fully rescued”. In addition, in experiment [1], the “duration of enhancement of ERK phosphorylation in dorsal striatum” value is given as “up to 6 h”. Further, the “caspase-3 levels in striatum of Hdh^Q111/+ mice” value with Hdh^Q111/+ knock-in mice is reported as “diminished caspase-3 levels”.
